Test results as given in PubChem BioAssay AID2125 (NMMLSC, 2009).
Activity calls are given as the source filed them.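 Rule for the calls: active = combined score above 50, rising as EC50 falls below 10 µM and growth at top dose drops; inactive = the rest.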 Peptide text beside a SMILES is read from it. * marks the point of attachment. Cbz = O=C(OCc1ccccc1)*

Experiments:
Test in all cases: growth inhibition of S. cerevisiae strain panel, profiling panel, 26S proteasome disassembly project, secondary panel, OD600 (AID 2125)
Conditions in all cases: growth OD600, 6-8 h
[1] = test system: YE3957
[2] = test system: YE3955
[3] = test system: YE3965
[4] = test system: YE3962
[5] = test system: YE4005
[6] = test system: YE4006
[7] = test system: YE4010
[8] = test system: YE4012
[9] = test system: YE3963
[10] = at 100 µM, active compounds read low

CC(=O)N1C(=O)C(=C2C=C(C)OC(C)=C2)c2ccccc21
percent response (growth) [1, 10]: 100% (inactive) | percent response (growth) [2, 10]: 70.6% (inactive) | percent response (growth) [3, 10]: 34.3% (inactive) | EC50 [4]: 0.16 µM | percent response (growth) [5, 10]: 70.5% (inactive) | EC50 [6]: 36 µM (inactive) | EC50 [7]: 0.13 µM | percent response (growth) [8, 10]: 96.9% (inactive) | percent response (growth) [9, 10]: 63.5% (inactive)

CC(C)C[C@@H](C=O)NC(=O)[C@H](CC(C)C)NC(=O)[C@H](CC(C)C)NC(=O)OCc1ccccc1 (Cbz-Leu-Leu-Leu-aldehyde)
EC50 [1]: 2.86 µM | EC50 [2]: 0.9 µM | EC50 [3]: 1.05 µM | percent response (growth) [4, 10]: 47.5% (inactive) | EC50 [5]: 1.24 µM | percent response (growth) [6, 10]: 63.7% (inactive) | percent response (growth) [7, 10]: 75.5% (inactive) | EC50 [8]: 1550 µM (inactive) | EC50 [9]: 0.93 µM
